The target of experiment [1] is T1, phosphorylated EGFR (pEGFR) (Homo sapiens, UniProt P00533).
T1 construct: performed to measure phosphorylated EGFR levels using A431 cells (10% FBS); endogenous in cells; host or cells: A431
Description: Detection of phosphorylated EGFR (pEGFR) in EGF-stimulated A431 cells. The format is cell-based. The note with it: A431 cells (10% FBS), 4 hours incubation, EGF 30 ng/mL 10 minutes, AlphaLISA. The protocol:
Enzyme-linked immunosorbent assays (ELISA) were performed to measure phosphorylated EGFR levels using A431 cells (10% FBS). A431 (1.0*10^4 cells/40 μl/well) cells were seeded in 384 well. Compounds were dissolved in DMSO, serially diluted in DMSO and then were added, mixed, and incubated for 4 hours at 37° C., 5% CO2. Following the 4-hours incubation, cells were stimulated for 10 minutes with EGF (Invitrogen, cat #PHG0311) at a final concentration of 30 ng/mL in the incubator. The media was aspirated and cells were lysed in 10 μL lysis buffer with protease and phosphatase inhibitors (PerkinElmer, cat #ALSU-PEGFR-A50K). The plates were placed on a shaker for 5 minutes and then incubated for 30 min at 4° C. for complete lysis. The lysate was transferred to an Optiplate (Perkin Elmer, cat #6007290).
Acceptor mix (PerkinElmer, cat #ALSU-PEGFR-A50K) was prepared just before use and 5 μL was dispensed to all the wells, followed by a 1.5-2 h incubation at room temperature in dark. The donor mix (PerkinElmer, cat #ALSU-PEGFR-A50K) was prepared under low light conditions prior to use and […] of donor mix was added to all the wells under subdued lighting or green filters. The plates were placed on a shaker for 5 min, sealed, and incubated overnight at room temperature in dark. Plates were read on the Envision (PerkinElmer) using standard AlphaLISA settings.
The percentage of inhibition on EGFR phosphorylation was calculated following equation: % Inhibition=100×(LumHC−LumSample)/(LumHC−LumLC). The low and high controls (LC/HC) are generated from lysate from wells with cells treated with DMSO or […] Staurosporine (BioAustralis, cat #BIA-S1086), […]. IC50 values were calculated by fitting the Curve using XLfit (v5.3.1.3), equation 201: Y=Bottom+(Top−Bottom)/(1+10^((Log IC50−X)*HillSlope)).
(In general: Alpha assays give light when donor and acceptor beads are brought close together.)

The target in experiment [2] is Ba/F3 ERBB2 A775_G776insYVMA (Homo sapiens, UniProt P04626, DUP772-775, cells depend on it). Description: Cell viability assay, Ba/F3 ERBB2 A775_G776insYVMA. Particulars: Ba/F3 ERBB2 YVMA cells, cell viability, 72 hours, CellTiter Glo; Table B5; read-out: Ba/F3 ERBB2 YVMA, IC50. The format is cell-based, mouse. The protocol: Cells were treated with compounds, and cell viability was measured as a metric of kinase inhibition.
Sequence of Ba/F3 ERBB2 A775_G776insYVMA (P04626 with tags, fused parts or gaps DUP772-775): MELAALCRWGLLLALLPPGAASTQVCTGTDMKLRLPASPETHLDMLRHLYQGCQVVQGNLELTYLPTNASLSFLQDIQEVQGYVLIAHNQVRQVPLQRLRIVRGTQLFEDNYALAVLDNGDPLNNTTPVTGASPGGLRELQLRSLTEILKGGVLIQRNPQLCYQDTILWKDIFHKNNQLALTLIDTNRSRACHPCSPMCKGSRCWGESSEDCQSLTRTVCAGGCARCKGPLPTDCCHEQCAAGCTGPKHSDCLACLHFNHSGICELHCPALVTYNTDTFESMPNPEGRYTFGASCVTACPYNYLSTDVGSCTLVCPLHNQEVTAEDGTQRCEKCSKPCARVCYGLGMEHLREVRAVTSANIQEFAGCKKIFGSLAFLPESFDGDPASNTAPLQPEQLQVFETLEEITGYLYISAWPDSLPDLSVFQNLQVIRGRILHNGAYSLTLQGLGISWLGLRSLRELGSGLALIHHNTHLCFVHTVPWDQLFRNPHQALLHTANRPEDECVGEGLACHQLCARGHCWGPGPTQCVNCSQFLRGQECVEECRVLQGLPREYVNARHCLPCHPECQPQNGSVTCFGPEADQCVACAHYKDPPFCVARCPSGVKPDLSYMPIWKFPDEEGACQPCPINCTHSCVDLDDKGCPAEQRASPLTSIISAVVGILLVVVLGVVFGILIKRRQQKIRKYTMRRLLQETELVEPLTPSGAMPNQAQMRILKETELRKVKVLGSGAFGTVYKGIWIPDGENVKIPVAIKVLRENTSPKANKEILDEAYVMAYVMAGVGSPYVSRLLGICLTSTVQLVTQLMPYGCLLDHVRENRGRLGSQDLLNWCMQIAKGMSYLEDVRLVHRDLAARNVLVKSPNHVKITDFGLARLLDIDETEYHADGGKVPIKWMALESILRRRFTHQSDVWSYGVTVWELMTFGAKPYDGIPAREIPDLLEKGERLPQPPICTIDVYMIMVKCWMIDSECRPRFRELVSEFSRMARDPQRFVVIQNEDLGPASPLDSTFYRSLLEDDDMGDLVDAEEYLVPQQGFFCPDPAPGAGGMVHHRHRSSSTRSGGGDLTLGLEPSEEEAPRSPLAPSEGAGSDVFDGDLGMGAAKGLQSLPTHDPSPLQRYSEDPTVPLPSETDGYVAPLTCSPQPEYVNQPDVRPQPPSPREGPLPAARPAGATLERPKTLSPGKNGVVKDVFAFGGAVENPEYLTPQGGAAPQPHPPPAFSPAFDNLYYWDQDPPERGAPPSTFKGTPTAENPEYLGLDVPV
The Ba/F3 cell line is IL-3-dependent mouse cell line derived from the C3H mouse strain. Ba/F3 cell lines were engineered to express human ERBB2 or EGFR kinases, rendering the cells IL-3 independent. The lines were generated via retroviral transduction utilizing a Moloney murine leukemia virus (MMLV) promoter, and constructs are stably integrated into the cell genome. The sequences of the ERBB2 and EGFR genes used were NCBI Reference Sequences NM_004448.3 and NM_005228.3, respectively.
Similarly, Ba/F3 cell lines engineered to express EGFR, ERBB2, or ERBB2 mutants were grown, harvested, counted and seeded at 3000 cells per well in 96-well plates. A subset of wells contained media only (low control, “LC”).
Table B1 provides the growth media and number of cells seeded per well for the each cell line.
Plates were placed in a 37° C., 5% CO2 incubator for 72 hours. Plates were then removed from the incubator and equilibrated for 15 minutes at room temperature. 40 μl of CellTiter Glo reagent (Promega) was added to measure the relative level of metabolically active cells by quantifying intracellular ATP concentrations. Plates were incubated for 30 minutes at room temperature, and luminescence was measured. […] Graphical curves were fitted using a nonlinear regression model with a sigmoidal dose response.
For orientation: Cellular ATP, detected with luciferase, serves as a proxy for viable cell number.

The target of experiment [3] is T2, phosphorylated ERBB2 (pERBB2) (Homo sapiens, UniProt P04626).
T2 construct: endogenous in cells; host or cells: BT-474
T2 sequence (P04626 23-1255): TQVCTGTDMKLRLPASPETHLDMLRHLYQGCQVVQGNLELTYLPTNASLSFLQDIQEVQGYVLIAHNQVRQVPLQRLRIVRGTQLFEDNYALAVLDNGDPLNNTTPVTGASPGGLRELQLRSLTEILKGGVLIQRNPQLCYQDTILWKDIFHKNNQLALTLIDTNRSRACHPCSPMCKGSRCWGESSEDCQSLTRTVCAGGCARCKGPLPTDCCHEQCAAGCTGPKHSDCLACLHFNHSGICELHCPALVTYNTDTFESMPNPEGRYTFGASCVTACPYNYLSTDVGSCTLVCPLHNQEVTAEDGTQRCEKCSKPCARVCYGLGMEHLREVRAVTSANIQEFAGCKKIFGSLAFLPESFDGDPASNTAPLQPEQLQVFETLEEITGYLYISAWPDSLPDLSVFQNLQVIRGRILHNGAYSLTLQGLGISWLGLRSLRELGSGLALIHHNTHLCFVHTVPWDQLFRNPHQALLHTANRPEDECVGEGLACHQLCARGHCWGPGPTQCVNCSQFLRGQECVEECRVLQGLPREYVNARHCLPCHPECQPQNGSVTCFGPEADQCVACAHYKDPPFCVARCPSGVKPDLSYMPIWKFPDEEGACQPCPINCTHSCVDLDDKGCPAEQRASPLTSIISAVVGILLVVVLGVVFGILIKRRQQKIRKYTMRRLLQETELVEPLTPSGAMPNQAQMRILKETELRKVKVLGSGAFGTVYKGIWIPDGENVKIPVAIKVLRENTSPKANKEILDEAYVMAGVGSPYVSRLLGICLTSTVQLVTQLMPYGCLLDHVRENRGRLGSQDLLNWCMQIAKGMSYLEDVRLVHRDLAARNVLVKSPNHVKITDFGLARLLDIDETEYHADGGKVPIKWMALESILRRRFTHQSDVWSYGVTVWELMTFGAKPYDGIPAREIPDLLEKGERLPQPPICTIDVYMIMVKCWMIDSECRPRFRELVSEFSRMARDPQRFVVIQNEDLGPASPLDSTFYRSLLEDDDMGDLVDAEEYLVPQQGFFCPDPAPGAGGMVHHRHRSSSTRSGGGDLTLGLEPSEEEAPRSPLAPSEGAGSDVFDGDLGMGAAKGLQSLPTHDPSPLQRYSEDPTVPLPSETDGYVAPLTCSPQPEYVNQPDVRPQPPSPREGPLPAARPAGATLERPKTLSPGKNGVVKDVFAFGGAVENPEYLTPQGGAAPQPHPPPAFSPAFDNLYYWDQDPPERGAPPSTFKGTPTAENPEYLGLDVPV
Put plainly: Detection of phosphorylated ERBB2 (pERBB2) by ELISA in BT-474 cells. The note with it: four hours incubation. The format is cell-based. The protocol: BT-474 cells were seeded into a 96-well at 2.0*10^4 cells/100 μl/well.
Compounds were dissolved and serially diluted in DMSO. The compounds were then were added, mixed, and incubated for four hours at 37° C., 5% CO2. Compounds were added using four-fold dilutions at final concentrations ranging from 10 μM to 0.01 nM.
Following the four hour incubation with compounds, cell lysates were prepared.
Plates were centrifuged for 5 min at 3000 RPM, and supernatant was removed from each well. Cells were washed 3 times by resuspension in 150 μl PBS, followed by centrifugation and removal of the supernatant, as above. […] Cells were incubated with lysis buffer for 1 hour at 4° C., and then stored at −80° C.
Enzyme-linked immunosorbent assays (ELISA) were performed to measure phosphorylated ERBB2 levels. […] The next day, plates were washed with PBS+0.05% Tween20 (PBST). 150 μl of 5% BSA blocking solution was added for 1 hour at room temperature, with shaking. Plates were washed with PBST. Cell lysates were thawed and 100 μl of lysate was added to the ELISA plate. The plates were incubated for 2 hours at room temperature, with shaking. […] Plates were incubated for 1 hour at room temperature, with shaking. Plates were then washed with PBST, and 100 μl TMB substrate solution (R&D Systems, cat #DY999) was added. Plate were incubated in the dark for 20 minutes at room temperature. 50 μl of Stop solution (R&D Systems, cat #DY994) (50 μl) was added to each well and mixed.
Optical density at 450 nm was read on an EnSpire plate reader (Perkin Elmer). The remaining kinase activity by calculated using the following formula: % Relative activity=100×(A450sample−A450LC)/(A450HC−A450LC). The low and high control values (“LC” and “HC”) were generated from lysate from wells without cells or with cells treated with 0.1% DMSO, respectively.
Background: ELISA stands for enzyme-linked immunosorbent assay.

Usually IC50 stands for the point on the concentration scale where inhibition reaches its midpoint.

Each structure is given as a SMILES string. Counter-ions that a name gives are not always drawn.

T1 sequence (P00533 25-1210): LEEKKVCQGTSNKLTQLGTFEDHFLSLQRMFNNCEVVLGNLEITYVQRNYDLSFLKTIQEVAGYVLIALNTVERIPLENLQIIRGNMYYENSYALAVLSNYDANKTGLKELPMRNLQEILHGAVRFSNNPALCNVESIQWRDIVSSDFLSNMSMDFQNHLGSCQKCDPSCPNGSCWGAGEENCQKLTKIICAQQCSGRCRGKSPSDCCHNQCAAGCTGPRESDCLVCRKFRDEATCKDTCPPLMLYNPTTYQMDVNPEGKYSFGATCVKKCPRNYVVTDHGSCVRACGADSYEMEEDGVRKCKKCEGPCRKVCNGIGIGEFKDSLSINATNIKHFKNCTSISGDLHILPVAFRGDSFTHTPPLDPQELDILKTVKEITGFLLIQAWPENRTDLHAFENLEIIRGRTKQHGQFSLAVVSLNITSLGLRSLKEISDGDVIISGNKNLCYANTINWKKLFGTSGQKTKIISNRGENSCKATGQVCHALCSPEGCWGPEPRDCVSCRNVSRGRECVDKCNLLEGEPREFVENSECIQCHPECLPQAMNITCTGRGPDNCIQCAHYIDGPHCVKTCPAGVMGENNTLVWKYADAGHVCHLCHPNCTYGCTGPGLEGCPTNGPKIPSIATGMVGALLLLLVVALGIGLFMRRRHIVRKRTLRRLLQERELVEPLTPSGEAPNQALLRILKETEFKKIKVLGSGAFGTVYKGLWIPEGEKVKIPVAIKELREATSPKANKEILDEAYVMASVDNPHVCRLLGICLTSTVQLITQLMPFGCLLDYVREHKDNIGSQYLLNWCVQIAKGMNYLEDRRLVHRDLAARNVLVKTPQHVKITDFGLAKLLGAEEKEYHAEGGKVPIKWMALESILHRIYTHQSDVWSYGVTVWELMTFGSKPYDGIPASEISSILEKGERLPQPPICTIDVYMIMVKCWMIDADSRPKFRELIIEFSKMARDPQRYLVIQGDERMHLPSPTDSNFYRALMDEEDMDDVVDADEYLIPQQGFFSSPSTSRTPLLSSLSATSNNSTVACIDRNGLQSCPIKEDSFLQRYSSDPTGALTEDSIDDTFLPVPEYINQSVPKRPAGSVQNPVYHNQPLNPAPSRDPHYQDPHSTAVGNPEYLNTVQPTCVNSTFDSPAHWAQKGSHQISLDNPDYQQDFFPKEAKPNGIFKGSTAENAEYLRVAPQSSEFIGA

For `CC1CN(c2cc3c(Nc4ccc(Oc5ccc6c(c5)nnn6C)c(F)c4)ncnc3cn2)C(=O)/C1=C/CN(C)C` (single isomer, unassigned) [Example S117, Enantiomer #1, (E)-3-(2-(dimethylamino)ethylidene)-1-(4-((3-fluoro-4-((1-methyl-1H-benzo[d][1,2,3]triazol-5-yl)oxy)phenyl)amino)pyrido[3,4-d]pyrimidin-6-yl)-4-methylpyrrolidin-2-one], the IC50 in experiment [1] worked out at 968 nM; in experiment [3], 40 nM. Moreover, the GI50 in experiment [2] was 12 nM.
`CC1CN(c2cc3c(Nc4ccc(Oc5ccc6c(c5)nnn6C)c(F)c4)ncnc3cn2)C(=O)/C1=C/CN(C)C` (single isomer, unassigned) [Example S117, Enantiomer #2, (E)-3-(2-(dimethylamino)ethylidene)-1-(4-((3-fluoro-4-((1-methyl-1H-benzo[d][1,2,3]triazol-5-yl)oxy)phenyl)amino)pyrido[3,4-d]pyrimidin-6-yl)-4-methylpyrrolidin-2-one]: the IC50 in experiment [1] was over 10000 nM; in experiment [3], 589 nM. For the same molecule, the GI50 in experiment [2] is over 500 nM.
The corresponding values for `CC1CN(c2cc3c(Nc4cc(F)c(Oc5ccc6c(c5)nnn6C)cc4F)ncnc3cn2)C(=O)/C1=C/CN(C)C` (single isomer, unassigned) [Example S125, Enantiomer #1, (3E)-1-[4-({2,5-difluoro-4-[(1-methyl-1,2,3-benzotriazol-5-yl)oxy]phenyl}amino)pyrido[3,4-d]pyrimidin-6-yl]-3-[2-(dimethylamino)ethylidene]-4-methylpyrrolidin-2-one] are over 10000 nM, 710 nM and over 500 nM.
For `CC1CN(c2cc3c(Nc4cc(F)c(Oc5ccc6c(c5)nnn6C)cc4F)ncnc3cn2)C(=O)/C1=C/CN(C)C` (single isomer, unassigned) [Example S125, Enantiomer #2, (3E)-1-[4-({2,5-difluoro-4-[(1-methyl-1,2,3-benzotriazol-5-yl)oxy]phenyl}amino)pyrido[3,4-d]pyrimidin-6-yl]-3-[2-(dimethylamino)ethylidene]-4-methylpyrrolidin-2-one], in that order: 2300 nM, 76 nM and 27 nM.
Regarding `Cc1cc(Nc2ncnc3ccc(N4CC(C)C(=CCN(C)C)C4=O)nc23)ccc1Oc1ccc2c(c1)nnn2C` (single isomer, unassigned) [Example S126, Enantiomer #1, 3-[2-(dimethylamino)ethylidene]-4-methyl-1-[4-({3-methyl-4-[(1-methyl-1,2,3-benzotriazol-5-yl)oxy]phenyl}amino)pyrido[3,2-d]pyrimidin-6-yl]pyrrolidin-2-one], the IC50 worked out at 299 nM in experiment [1] and 40.9 nM in experiment [3]. Besides, the GI50 in experiment [2] came to 2.04 nM.
Regarding `Cc1cc(Nc2ncnc3ccc(N4CC(C)C(=CCN(C)C)C4=O)nc23)ccc1Oc1ccc2c(c1)nnn2C` (single isomer, unassigned) [Example S126, Enantiomer #2, 3-[2-(dimethylamino)ethylidene]-4-methyl-1-[4-({3-methyl-4-[(1-methyl-1,2,3-benzotriazol-5-yl)oxy]phenyl}amino)pyrido[3,2-d]pyrimidin-6-yl]pyrrolidin-2-one], the IC50 in experiment [1] is over 10000 nM; in experiment [3] it was 401 nM. Besides, the GI50 in experiment [2] was determined as 205 nM.
Regarding `CC1CN(c2ccc3ncnc(Nc4ccc(Oc5ccn6ncnc6c5)c(F)c4)c3n2)C(=O)/C1=C/CN(C)C` (single isomer, unassigned) [Example S127, Enantiomer #1, (E)-1-(4-((4-([1,2,4]triazolo[1,5-a]pyridin-7-yloxy)-3-fluorophenyl)amino)pyrido[3,2-d]pyrimidin-6-yl)-3-(2-(dimethylamino)ethylidene)-4-methylpyrrolidin-2-one], the IC50 in experiment [1] was 575 nM; in experiment [3], 14 nM. Further, in experiment [2], the GI50 amounted to 2.88 nM.
In the case of `CC1CN(c2ccc3ncnc(Nc4ccc(Oc5ccn6ncnc6c5)c(F)c4)c3n2)C(=O)/C1=C/CN(C)C` (single isomer, unassigned) [Example S127, Enantiomer #2, (E)-1-(4-((4-([1,2,4]triazolo[1,5-a]pyridin-7-yloxy)-3-fluorophenyl)amino)pyrido[3,2-d]pyrimidin-6-yl)-3-(2-(dimethylamino)ethylidene)-4-methylpyrrolidin-2-one], the IC50 in experiment [1] is over 10000 nM; in experiment [3] it was 146 nM. Besides, in experiment [2], the GI50 was found to be 418 nM.
The corresponding values for `C=C1C(=O)N(c2cc3c(Nc4ccc(Oc5ccn6ncnc6c5)c(C)c4)ncnc3cn2)C2CC12` (single isomer, unassigned; enantiomer 1) [Example S40, Enantiomer # 1, 2-{4-[(3-methyl-4-{[1,2,4]triazolo[1,5-a]pyridin-7-yloxy}phenyl)amino]pyrido[3,4-d]pyrimidin-6-yl}-4-methylidene-2-azabicyclo[3.1.0]hexan-3-one Enantiomer 1] are 103 nM, 9.9 nM and 3.47 nM.
Regarding `Cc1cc(Nc2ncnc3ccc(N4CC(C)/C(=C\CN(C)C)C4=O)nc23)ccc1Oc1ccc2c(c1)ncn2C` (single isomer, unassigned; enantiomer 1) [Example S58, Enantiomer # 1, (3E)-3-[2-(dimethylamino)ethylidene]-4-methyl-1-[4-({3-methyl-4-[(1-methyl-1,3-benzodiazol-5-yl)oxy]phenyl}amino)pyrido[3,2-d]pyrimidin-6-yl]pyrrolidin-2-one hydrochloride Enantiomer 1], the results for the IC50 in experiment [1] and in experiment [3] were 264 nM and 29.7 nM, respectively. In addition, in experiment [2], the GI50 turned out to be 1.46 nM.
As to `C=C1C(=O)N(c2cc3c(Nc4ccc(Oc5ccn6ncnc6c5)c(C)c4)ncnc3cn2)C2CC12` (single isomer, unassigned; enantiomer 2) [Example S40, Enantiomer # 2, 2-{4-[(3-methyl-4-{[1,2,4]triazolo[1,5-a]pyridin-7-yloxy}phenyl)amino]pyrido[3,4-d]pyrimidin-6-yl}-4-methylidene-2-azabicyclo[3.1.0]hexan-3-one Enantiomer 2], the IC50 in experiment [1] was determined as 6450 nM; in experiment [3], 35.5 nM. In experiment [2], the GI50 was 68.1 nM.

(Values after patent US20240116921A1, “LACTAM (HETERO)[…] DERIVATIVES AS INHIBITORS OF ERBB2” (EnLiven Therapeutics, Inc., priority 2020, published 2024).)
